In assay [1] the target is T1, IRE1a (Homo sapiens, UniProt O75460).
T1 construct: purchased SignalChem
The assay can be described thus: In vitro FRET assay (IRE1a cleavage of XBP1 RNA probe). Particulars: 2 nM SignalChem IRE1a, tested as Formic Acid Salt (37: HCl Salt). Type of assay: biochemical. A digest of the protocol: Human

Assay [2] has as its system IRE1a. The assay can be described thus: IRE1a Endoribonuclease Nanoluciferase Assay (XBP1 luciferase reporter in 293T cells). As to conditions: Homo sapiens, HEK-293T, ER stressor, tested as Formic Acid Salt (37: HCl Salt). Type of assay: cell-based, human. The gist of the method:
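293T cells transiently transfected with a PGK-Luc2-P2A-XBP1u-Nanoluciferase-Pest reporter, replated after 6 h, then treated next day with ER stressors ± inhibitors. After lysis, firefly luminescence then nanoluciferase luminescence read sequentially (1000 ms integration each).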

The test system of assay [3] is 293T cells. The assay can be described thus: Growth assay (cytotoxicity). Particulars: Homo sapiens, HEK-293T, Formic Acid Salt (37: HCl Salt). Type of assay: cell-based, human. The method, then:
A growth assay was performed to evaluate the compounds disclosed herein for cytotoxicity. Briefly, 5,000,000 293T cells were resuspended in 18 mL of cDMEM for a final concentration of […]. […] In a separate 96 well dilution plate, 199 uL cDMEM and 1 uL of DMSO or any one of the compounds disclosed herein (shown as Test Compound 1, 2, 3, 4, 5, or 6 below) were added to wells A4, A8, C4, C8, E4, E8, G4, and G8, 133.3 uL cDMEM was added to wells 1, 2, 3, 5, 6, and 7 in rows A, C, E and G of the dilution plate. Compounds were serially diluted leftwards in threefold dilutions (66.7 uL into 133.3 uL cDMEM). 20 uL of each dilution was transferred in duplicate (duplicates in vertical paired wells) to the cells plated in the 96-well plate shown in Table 5, to the total concentrations shown below. 200 uL cDMEM was addled to media wells (wells G5-H8). The plate was then placed in a humidified chamber for a […], and then photographed (media was more yellow in wells with potent cell growth). Absorbance was then measured at ˜[…] (lower for more acidic media) and ˜450 nM (higher for more acidic media).

T1 sequence (O75460 19-977): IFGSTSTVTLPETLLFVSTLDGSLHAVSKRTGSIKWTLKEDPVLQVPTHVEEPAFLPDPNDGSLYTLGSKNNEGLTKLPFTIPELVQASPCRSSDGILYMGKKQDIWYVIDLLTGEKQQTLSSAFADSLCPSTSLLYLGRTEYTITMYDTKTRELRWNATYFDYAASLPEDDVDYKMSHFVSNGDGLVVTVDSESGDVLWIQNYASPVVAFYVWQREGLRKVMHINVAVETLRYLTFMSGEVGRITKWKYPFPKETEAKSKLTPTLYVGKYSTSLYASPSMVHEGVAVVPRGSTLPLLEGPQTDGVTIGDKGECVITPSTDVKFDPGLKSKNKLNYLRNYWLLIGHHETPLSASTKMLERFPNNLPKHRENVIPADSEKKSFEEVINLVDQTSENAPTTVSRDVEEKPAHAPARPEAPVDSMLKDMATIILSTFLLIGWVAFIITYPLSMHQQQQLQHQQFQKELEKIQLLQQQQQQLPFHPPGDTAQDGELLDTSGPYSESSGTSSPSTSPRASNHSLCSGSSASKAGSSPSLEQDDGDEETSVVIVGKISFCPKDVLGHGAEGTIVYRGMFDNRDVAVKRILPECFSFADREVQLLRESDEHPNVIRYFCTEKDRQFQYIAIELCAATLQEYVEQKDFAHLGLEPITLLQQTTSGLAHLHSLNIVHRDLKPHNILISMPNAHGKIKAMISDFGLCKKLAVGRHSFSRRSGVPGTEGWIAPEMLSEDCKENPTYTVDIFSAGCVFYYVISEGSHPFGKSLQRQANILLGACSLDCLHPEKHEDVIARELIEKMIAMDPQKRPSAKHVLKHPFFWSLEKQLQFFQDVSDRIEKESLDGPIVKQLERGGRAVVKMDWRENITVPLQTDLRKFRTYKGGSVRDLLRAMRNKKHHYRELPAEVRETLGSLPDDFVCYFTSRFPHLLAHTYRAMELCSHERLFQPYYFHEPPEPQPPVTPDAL

With `CCc1cc(-c2cnc(NS(=O)(=O)c3ccccc3Cl)cn2)cc2cnc(N[C@H]3CC[C@H](N)CC3)nc12` [Compound 25, N-(S-(2-(((1r,4r)-4-aminocyclohexyl)amino)-8-ethylquinazolin-6-yl)pyrazin-2-yl)-2-chlorobenzene-sulfonamide], the IC50 in assay [1] was at most 5 nM. In assay [2], the EC50 was at most 5 nM. Besides, in assay [3], the viability at 0.185 µM lay in the range of 75 to 100%, the viability at 0.5556 µM was 75 to 100%, the viability at 1.667 µM lay in the range of 75 to 100% and the viability at 5 µM fell in the range of 75 to 100%.

On to `CCc1cc(-c2ccc(NS(=O)(=O)c3ccccc3Cl)nn2)cc2cnc(N[C@H]3CC[C@H](N)CC3)nc12` [Compound 32, N-(6-(2-(((1r,4r)-4-aminocyclohexyl)amino)-8-ethylquinazolin-6-yl)pyridazin-3-yl)-2-chlorobenzene-sulfonamide], for which, in assay [1], the half-maximal inhibitory concentration (IC50) is at most 5 nM. For the same compound, in assay [2], the EC50 is at most 5 nM. In assay [3], the viability at 0.185 µM was in the range of 75 to 100%, the viability at 0.5556 µM was in the range of 75 to 100%, the viability at 1.667 µM fell in the range of 50 to 75% and the viability at 5 µM was in the range of 25 to 50%.

`CCc1cc(-c2cnc(NS(=O)(=O)c3ccccc3Cl)nc2OC)cc2cnc(N[C@H]3CC[C@H](N)CC3)nc12` [Compound 46, N-(5-(2-(((1r,4r)-4-aminocyclohexyl)amino)-8-ethylquinazolin-6-yl)-4-methoxypyrimidin-2-yl)-2-chlorobenzene-sulfonamide]: in assay [1], the concentration for half-maximal inhibition (IC50) was at most 5 nM. The EC50 in assay [2] was at most 5 nM. Further, in assay [3], the viability at 0.185 µM fell in the range of 75 to 100%, the viability at 0.5556 µM was 75 to 100%, the viability at 1.667 µM was 75 to 100% and the viability at 5 µM was 75 to 100%.

Take `CCc1cc(-c2ncc(NS(=O)(=O)c3ccccc3Cl)cc2F)cc2cnc(N[C@H]3CC[C@H](N)CC3)nc12` [Compound 52]: in assay [1], the IC50 is at most 5 nM. Moreover, the EC50 in assay [2] is at most 5 nM. For the same compound, in assay [3], the viability at 0.185 µM is 75 to 100%, the viability at 0.5556 µM lay in the range of 75 to 100%, the viability at 1.667 µM is 75 to 100% and the viability at 5 µM lay in the range of 50 to 75%.

On to `CCc1cc(-c2nnc(NS(=O)(=O)c3ccccc3Cl)cc2OC)cc2cnc(N[C@H]3CC[C@H](N)CC3)nc12` [Compound 65, N-(6-(2-(((1r,4r)-4-aminocyclohexyl)amino)-8-ethylquinazolin-6-yl)-5-methoxypyridazin-3-yl)-2-chlorobenzene-sulfonamide], for which the IC50 in assay [1] is at most 5 nM. In addition, the EC50 in assay [2] lay in the range of 5 to 50 nM. Besides, in assay [3], the viability at 0.185 µM fell in the range of 75 to 100%, the viability at 0.5556 µM lay in the range of 75 to 100%, the viability at 1.667 µM fell in the range of 75 to 100% and the viability at 5 µM is 50 to 75%.

Regarding `CCc1cc(-c2ncc(NS(=O)(=O)c3ccccc3Cl)cn2)cc2cnc(N[C@H]3CC[C@H](N)CC3)nc12` [Compound 33], the IC50 in assay [1] is at most 5 nM. In assay [2], the 50% effective concentration (EC50) is at most 5 nM. Also, in assay [3], the viability at 0.185 µM lay in the range of 75 to 100%, the viability at 0.5556 µM lay in the range of 75 to 100%, the viability at 1.667 µM was 75 to 100% and the viability at 5 µM was 50 to 75%.

Regarding `CCc1cc(-c2ccc(NS(=O)(=O)c3ccccc3Cl)cc2F)cc2cnc(N[C@H]3CC[C@H](N)CC3)nc12` [Compound 35, N-(4-(2-(((1r,4r)-4-aminocyclohexyl)amino)-8-ethylquinazolin-6-yl)-3-fluorophenyl)-2-chlorobenzene-sulfonamide], the IC50 in assay [1] was at most 5 nM. Besides, the EC50 in assay [2] was at most 5 nM. Also, in assay [3], the viability at 0.185 µM fell in the range of 75 to 100%, the viability at 0.5556 µM was 75 to 100%, the viability at 1.667 µM fell in the range of 50 to 75% and the viability at 5 µM lay in the range of 25 to 50%.

As for `CCc1cc(-c2nnc(NS(=O)(=O)c3ccccc3Cl)cc2C)cc2cnc(N[C@H]3CC[C@H](N)CC3)nc12` [Compound 67, N-(6-(2-(((1r,4r)-4-aminocyclohexyl)amino)-8-ethylquinazolin-6-yl)-5-methylpyridazin-3-yl)-2-chlorobenzene-sulfonamide], in assay [1], the IC50 is at most 5 nM. Also, in assay [2], the EC50 was in the range of 5 to 50 nM. For the same compound, in assay [3], the viability at 0.185 µM is 75 to 100%, the viability at 0.5556 µM is 75 to 100%, the viability at 1.667 µM lay within 50 to 75% and the viability at 5 µM fell in the range of 50 to 75%.

In the case of `CCc1cc(NS(=O)(=O)c2ccccc2Cl)ccc1-c1cc(CC)c2nc(N[C@H]3CC[C@H](N)CC3)ncc2c1` [Compound 34, N-(4-(2-(((1r,4r)-4-aminocyclohexyl)amino)-8-ethylquinazolin-6-yl)-3-ethylphenyl)-2-chlorobenzene-sulfonamide], the IC50 in assay [1] was at most 5 nM. The half-maximal effective concentration (EC50) in assay [2] fell in the range of 5 to 50 nM. Further, in assay [3], the viability at 0.185 µM lay within 75 to 100%, the viability at 0.5556 µM was 75 to 100%, the viability at 1.667 µM is 75 to 100% and the viability at 5 µM was at most 25%.

In the case of `CCc1cc(-c2ccc(NS(=O)(=O)c3ccccc3Cl)nc2)cc2cnc(N[C@H]3CC[C@H](N)CC3)nc12` [Compound 27, N-(5-(2-(((1r,4)-4-aminocyclohexyl)amino)-8-ethylquinazolin-6-yl)pyridin-2-yl)-2-chlorobenzene-sulfonamide], in assay [1], the 50% inhibitory concentration (IC50) is at most 5 nM. In assay [2], the 50% effective concentration (EC50) is at most 5 nM. In assay [3], the viability at 0.185 µM lay in the range of 75 to 100%, the viability at 0.5556 µM is 75 to 100%, the viability at 1.667 µM lay in the range of 50 to 75% and the viability at 5 µM lay within 25 to 50%.

As for `CCc1cc(-c2cnc(NS(=O)(=O)c3ccccc3Cl)nc2C)cc2cnc(N[C@H]3CC[C@H](N)CC3)nc12` [Compound 23], in assay [1], the IC50 was at most 5 nM. In addition, in assay [2], the EC50 is at most 5 nM. Also, in assay [3], the viability at 0.185 µM lay in the range of 75 to 100%, the viability at 0.5556 µM fell in the range of 50 to 75%, the viability at 1.667 µM lay in the range of 50 to 75% and the viability at 5 µM is 75 to 100%.

Turning to `CCc1cc(-c2cnc(NS(=O)(=O)c3ccccc3Cl)c(F)c2)cc2cnc(N[C@H]3CC[C@H](N)CC3)nc12` [Compound 55, N-(5-(2-(((1r,4r)-4-aminocyclohexyl)amino)-8-ethylquinazolin-6-yl)-3-fluoropyridin-2-yl)-2-chlorobenzene-sulfonamide], the IC50 in assay [1] was at most 5 nM. Besides, the EC50 in assay [2] was at most 5 nM. In addition, in assay [3], the viability at 0.185 µM fell in the range of 75 to 100%, the viability at 0.5556 µM was 75 to 100%, the viability at 1.667 µM lay in the range of 75 to 100% and the viability at 5 µM lay within 75 to 100%.

Take `COc1nc(NS(=O)(=O)c2ccccc2Cl)ccc1-c1cc(C(C)(F)F)c2nc(N[C@H]3CC[C@H](N(C)C)CC3)ncc2c1` [Compound 124, 2-chloro-N-(5-(8-(1,1-difluoroethyl)-2-(((1r,4r)-4-(dimethylamino)cyclohexyl)amino)quinazolin-6-yl)-6-methoxypyridin-2-yl)benzenesulfonamide]: the half-maximal inhibitory concentration (IC50) in assay [1] is at most 5 nM. The 50% effective concentration (EC50) in assay [2] is at most 5 nM.

Take `CCc1cc(-c2ccc(NS(=O)(=O)c3ccccc3Cl)c(F)c2)cc2cnc(N[C@H]3CC[C@H](NC(C)=O)CC3)nc12` [Compound 59]: in assay [1], the IC50 was 5 to 50 nM. For the same compound, the EC50 in assay [2] lay within 50 to 100 nM.

For `CCc1cc(-c2ccc(NS(=O)(=O)c3ccccc3Cl)nc2C)cc2cnc(N[C@H]3CC[C@H](N(C)CC4CCC4)CC3)nc12` [Compound 130, 2-chloro-N-(5-(2-(((1r,4r)-4-((cyclobutylmethyl)(methyl)amino)cyclohexyl)amino)-8-ethylquinazolin-6-yl)-6-methylpyridin-2-yl)benzenesulfonamide], the IC50 in assay [1] was at most 5 nM. Moreover, the EC50 in assay [2] is at most 5 nM.

On to `CCc1cc(-c2cnc(NS(=O)(=O)c3ccccc3Cl)nc2OC)cc2cnc(N[C@H]3CC[C@H](N(C)C)CC3)nc12` [Compound 154, 2-chloro-N-(5-(2-(((1r,4r)-4-(dimethylamino)cyclohexyl)amino)-8-ethylquinazolin-6-yl)-4-methoxypyrimidin-2-yl)benzenesulfonamide], for which, in assay [1], the IC50 is at most 5 nM. Also, the EC50 in assay [2] is at most 5 nM.

For `Cc1nc(NS(=O)(=O)c2ccccc2Cl)ccc1-c1cc(C(C)(F)F)c2nc(N[C@H]3CC[C@H](N(C)C)CC3)ncc2c1` [Compound 131], in assay [1], the IC50 is at most 5 nM. For the same compound, the EC50 in assay [2] is at most 5 nM.

For `CCc1c(F)c(-c2cc(F)c(NS(=O)(=O)c3ccccc3Cl)nc2OC)cc2cnc(N[C@H]3CC[C@H](N(C)C)CC3)nc12` [Compound 163, 2-chloro-N-(5-(2-(((1r,4r)-4-(dimethylamino)cyclohexyl)amino)-8-ethyl-7-fluoroquinazolin-6-yl)-3-fluoro-6-methoxypyridin-2-yl)benzenesulfonamide], the IC50 in assay [1] is at most 5 nM. In addition, in assay [2], the EC50 was at most 5 nM.

The values are drawn from US12071424B2, “IRE1 small molecule inhibitors” (Cornell University, priority 2017, dated 2024).
